Data reported in US20260028365A1 (BIOGEN MA INC., priority 2022, published 2026).
Where two headings read alike, the source gives them in different places.

Columns and labels:
JH2 domain of human Tyk2 = JH2 domain of human Tyk2 (Homo sapiens (Human), UniProt P29597); assay: JH2 Biochemical Assay (TR-FRET probe displacement); format: binding
Tyk2 = Tyk2 (Homo sapiens (Human), UniProt P29597); assay: pSTAT4 Cell Assay (MSD, NK92 cells); format: cell-based
[1] = JH2 domain of human Tyk2, TR-FRET probe displacement
[2] = TR-FRET probe displacement, JH2 domain
[3] = TR-FRET probe displacement, JH2 domain of human Tyk2

Chain of Tyk2 (P29597 whole entry, the tested form may be a part): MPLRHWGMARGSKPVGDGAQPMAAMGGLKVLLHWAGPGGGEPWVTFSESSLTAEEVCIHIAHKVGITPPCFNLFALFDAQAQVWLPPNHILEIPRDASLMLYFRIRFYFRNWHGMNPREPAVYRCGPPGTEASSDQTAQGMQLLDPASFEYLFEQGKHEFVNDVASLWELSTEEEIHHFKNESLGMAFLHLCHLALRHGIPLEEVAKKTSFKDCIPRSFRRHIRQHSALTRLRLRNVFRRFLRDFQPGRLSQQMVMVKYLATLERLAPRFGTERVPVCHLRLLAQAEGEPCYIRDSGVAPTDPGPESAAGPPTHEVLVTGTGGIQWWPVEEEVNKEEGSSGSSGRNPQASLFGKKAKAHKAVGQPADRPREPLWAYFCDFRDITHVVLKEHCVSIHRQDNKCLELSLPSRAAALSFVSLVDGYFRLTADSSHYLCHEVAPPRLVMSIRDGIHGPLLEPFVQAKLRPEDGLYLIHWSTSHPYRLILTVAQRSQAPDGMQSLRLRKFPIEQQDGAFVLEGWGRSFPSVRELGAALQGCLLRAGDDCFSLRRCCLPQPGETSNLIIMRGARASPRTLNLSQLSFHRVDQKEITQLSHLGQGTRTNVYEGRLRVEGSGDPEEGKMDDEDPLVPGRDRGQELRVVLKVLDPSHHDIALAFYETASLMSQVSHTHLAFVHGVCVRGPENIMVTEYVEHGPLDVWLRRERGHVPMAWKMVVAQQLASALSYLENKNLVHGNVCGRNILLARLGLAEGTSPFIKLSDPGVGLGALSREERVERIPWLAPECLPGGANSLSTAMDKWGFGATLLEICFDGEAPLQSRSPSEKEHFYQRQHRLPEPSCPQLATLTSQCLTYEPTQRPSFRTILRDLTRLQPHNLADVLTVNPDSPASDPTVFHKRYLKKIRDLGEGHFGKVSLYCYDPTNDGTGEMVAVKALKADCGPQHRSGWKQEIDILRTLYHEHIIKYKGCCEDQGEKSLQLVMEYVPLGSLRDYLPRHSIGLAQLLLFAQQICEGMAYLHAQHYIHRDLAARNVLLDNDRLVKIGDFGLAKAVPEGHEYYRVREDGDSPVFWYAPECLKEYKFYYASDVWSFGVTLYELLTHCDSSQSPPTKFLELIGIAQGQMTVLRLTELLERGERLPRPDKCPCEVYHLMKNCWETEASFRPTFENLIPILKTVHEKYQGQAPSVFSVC
Chain of JH2 domain of human Tyk2 (P29597 575-876): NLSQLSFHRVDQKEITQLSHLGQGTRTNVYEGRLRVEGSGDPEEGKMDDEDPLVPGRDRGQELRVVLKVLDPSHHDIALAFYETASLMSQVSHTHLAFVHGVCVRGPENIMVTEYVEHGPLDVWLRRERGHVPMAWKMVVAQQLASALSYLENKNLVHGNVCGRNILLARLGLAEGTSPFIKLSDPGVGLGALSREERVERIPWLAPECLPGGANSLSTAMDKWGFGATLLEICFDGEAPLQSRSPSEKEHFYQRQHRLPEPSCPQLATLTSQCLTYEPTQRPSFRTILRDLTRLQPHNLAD

SMILES | IC50 (JH2 domain of human Tyk2; [1]) [nM] | IC50 (Tyk2; MSD) [nM] | IC50 (JH2 domain of human Tyk2; [2]) [nM] | IC50 (Tyk2) [nM] | IC50 (JH2 domain of human Tyk2; [3]) [nM]
CC(=O)Nc1cc(Nc2cc(C)nc(C(C)(F)F)n2)c(-c2cc(CN(C)C)ccn2)cn1 [Example 740, N-(4′-((2-(1,1-difluoroethyl)-6-methylpyrimidin-4-yl)amino)-4-((dimethylamino)methyl)-[2,3′-bipyridin]-6′-yl)acetamide] | ≤ 10 | ≤ 10 |  |  | 
COC1CCN(c2ccc(-c3cnc(NC(C)=O)cc3Nc3ccnc(C(C)(F)F)n3)nn2)C1 (racemic) [Example 873, rac-(R)-N-(4-((2-(1,1-difluoroethyl)pyrimidin-4-yl)amino)-5-(6-(3-methoxypyrrolidin-1-yl)pyridazin-3-yl)pyridin-2-yl)acetamide] |  |  | ≤ 10 | ≤ 10 | 
CCOc1cnc(NC(=O)COC)cc1Nc1cc(C)nc(C(C)(F)F)n1 [Example 26, N-(4-((2-(1,1-difluoroethyl)-6-methylpyrimidin-4-yl)amino)-5-ethoxypyridin-2-yl)-2-methoxyacetamide] |  | 10 to 100 |  |  | ≤ 10
CCc1cc(Nc2cc(NC(C)=O)ncc2OCCOC(F)F)nc(C(C)(F)F)n1 [Example 68, N-(4-((2-(1,1-difluoroethyl)-6-ethylpyrimidin-4-yl)amino)-5-(2-(difluoromethoxy)ethoxy)pyridin-2-yl)acetamide] |  | ≤ 10 |  |  | ≤ 10
COc1cc(-c2cnc(NC(C)=O)cc2Nc2cc(C)nc(C(C)(F)F)n2)ncn1 [Example 194, N-(4-((2-(1,1-difluoroethyl)-6-methylpyrimidin-4-yl)amino)-5-(6-methoxypyrimidin-4-yl)pyridin-2-yl)acetamide] |  | ≤ 10 |  |  | ≤ 10
CCc1cc(Nc2cc(NC(C)=O)ncc2-c2ncc(OC(F)F)cn2)nc(C(C)(F)F)n1 [Example 848, N-(4-((2-(1,1-difluoroethyl)-6-ethylpyrimidin-4-yl)amino)-5-(5-(difluoromethoxy)pyrimidin-2-yl)pyridin-2-yl)acetamide] |  |  | ≤ 10 | ≤ 10 | 
CC(=O)Nc1cc(Nc2ccnc(C(C)(F)F)n2)c(-c2ccc(CN3C[C@H]4C[C@@H]3CO4)cn2)cn1 [Example 886, N-(5-(((1R,4R)-2-oxa-5-azabicyclo[2.2.1]heptan-5-yl)methyl)-4′-((2-(1,1-difluoroethyl)pyrimidin-4-yl)amino)-[2,3′-bipyridin]-6′-yl)acetamide] |  |  | ≤ 10 | ≤ 10 | 
CC(=O)Nc1cc(Nc2cccc(C(C)(F)F)n2)c(-c2cn(C)c(=O)cn2)cn1 [Example 159, N-(4-((6-(1,1-difluoroethyl)pyridin-2-yl)amino)-5-(4-methyl-5-oxo-4,5-dihydropyrazin-2-yl)pyridin-2-yl)acetamide] |  | 10 to 100 |  |  | ≤ 10
CCc1cc(Nc2cc(NC(C)=O)ncc2-c2ccc(N(C)C)nn2)nc(C(C)(F)F)n1 [Example 862, N-(4-((2-(1,1-difluoroethyl)-6-ethylpyrimidin-4-yl)amino)-5-(6-(dimethylamino)pyridazin-3-yl)pyridin-2-yl)acetamide] |  |  | ≤ 10 | ≤ 10 | 
CCCc1cnc(NC(C)=O)cc1Nc1cc(C)nc(C(C)(F)F)n1 [Example 43, N-(4-((2-(1,1-difluoroethyl)-6-methylpyrimidin-4-yl)amino)-5-propylpyridin-2-yl)acetamide] |  | ≥ 1000 |  |  | 10 to 100
COCCn1cc(-c2cnc(NC(C)=O)cc2Nc2cc(C)nc(C(C)(F)F)n2)nn1 [Example 259, N-(4-((2-(1,1-difluoroethyl)-6-methylpyrimidin-4-yl)amino)-5-(1-(2-methoxyethyl)-1H-1,2,3-triazol-4-yl)pyridin-2-yl)acetamide] |  | ≤ 10 |  |  | ≤ 10
CC(=O)Nc1cc(Nc2cc(C)nc(C(C)(F)F)n2)c(-c2cccc(C3CN(C)CCO3)n2)cn1 (stereo not shown) [Example 640, N-(4′-((2-(1,1-difluoroethyl)-6-methylpyrimidin-4-yl)amino)-6-(4-methylmorpholin-2-yl)-[2,3′-bipyridin]-6′-yl)acetamide] | ≤ 10 | ≤ 10 |  |  | 
CC(=O)Nc1cc(Nc2cc(OC3CC3)nc(C(C)(F)F)n2)c(OCc2ccccn2)cn1 [Example 348, N-(4-((6-cyclopropoxy-2-(1,1-difluoroethyl)pyrimidin-4-yl)amino)-5-(pyridin-2-ylmethoxy)pyridin-2-yl)acetamide] |  | 10 to 100 |  |  | ≤ 10
CC(=O)Nc1cc(Nc2cc(C)nc(C(C)(F)F)n2)c(OCc2ccsn2)cn1 [Example 323, N-(4-((2-(1,1-difluoroethyl)-6-methylpyrimidin-4-yl)amino)-5-(isothiazol-3-ylmethoxy)pyridin-2-yl)acetamide] |  | ≤ 10 |  |  | ≤ 10
CCOc1cnc(NC(C)=O)cc1Nc1cc(-c2ccc(CC)nc2)nc(C(C)(F)F)n1 [Example 368, N-(4-((2-(1,1-difluoroethyl)-6-(6-ethylpyridin-3-yl)pyrimidin-4-yl)amino)-5-ethoxypyridin-2-yl)acetamide] |  | ≤ 10 |  |  | ≤ 10
CC(=O)Nc1cc(Nc2cc(C)nc(C(C)(F)F)n2)c(-c2cccc(C3CCCCO3)n2)cn1 (stereo not shown) [Example 647, N-(4′-((2-(1,1-difluoroethyl)-6-methylpyrimidin-4-yl)amino)-6-(tetrahydro2H-pyran-2-yl)-[2,3′-bipyridin]-6′-yl)acetamide] | ≤ 10 | ≤ 10 |  |  | 
CC(=O)Nc1cc(Nc2cc(C)nc(C(C)(F)F)n2)c(OCC2CCO2)cn1 (stereo not shown) [Example 85, N-(4-((2-(1,1-difluoroethyl)-6-methylpyrimidin-4-yl)amino)-5-(oxetan-2-ylmethoxy)pyridin-2-yl)acetamide] |  | 10 to 100 |  |  | ≤ 10
COCCn1cnc(-c2cnc(NC(C)=O)cc2Nc2cc(C)nc(C(C)(F)F)n2)cc1=O [Example 250, N-(4-((2-(1,1-difluoroethyl)-6-methylpyrimidin-4-yl)amino)-5-(1-(2-methoxyethyl)-6-oxo-1,6-dihydropyrimidin-4-yl)pyridin-2-yl)acetamide] |  | 100 to 1000 |  |  | ≤ 10
CC(=O)Nc1cc(Nc2cc(C)nc(C(C)(F)F)n2)c(OCC2(F)CC2)cn1 [Example 99, N-(4-((2-(1,1-difluoroethyl)-6-methylpyrimidin-4-yl)amino)-5-((1-fluorocyclopropyl)methoxy)pyridin-2-yl)acetamide] |  | ≤ 10 |  |  | ≤ 10
COCCOc1nc(C)cc(Nc2cc(NC(C)=O)ncc2-c2ccn(C)n2)n1 [Example 559, N-(4-((2-(2-methoxyethoxy)-6-methylpyrimidin-4-yl)amino)-5-(1-methyl-1H-pyrazol-3-yl)pyridin-2-yl)acetamide] | ≤ 10 | 10 to 100 |  |  | 
CC(=O)Nc1cc(Nc2cc(C)nc(C(C)(F)F)n2)c(OCC(C)OC(C)(C)C)cn1 (stereo not shown) [Example 427, N-(5-(2-(tert-butoxy)propoxy)-4-((2-(1,1-difluoroethyl)-6-methylpyrimidin-4-yl)amino)pyridin-2-yl)acetamide] | ≤ 10 | 10 to 100 |  |  | 
COCCOc1cnc(NC(C)=O)cc1Nc1nc(C)cc(C(C)(F)F)n1 [Example 78] |  | 10 to 100 |  |  | ≤ 10
CC(=O)Nc1cc(Nc2ccnc(C(C)(F)F)n2)c(-c2cc(C)ccn2)cn1 [Example 700, N-(4′-((2-(1,1-difluoroethyl)pyrimidin-4-yl)amino)-4-methyl-[2,3′-bipyridin]-6′-yl)acetamide] | ≤ 10 | 10 to 100 |  |  | 
